Earlier results in patent publication US4220642A, “Vasoactive lung polypeptides” (priority 1978, dated 1980).

Assays:
[1] = test system: rat stomach strip, rat colon; conditions: rat stomach strip and colon
[2] = test system: guinea pig trachea, ileum, gallbladder, pulmonary artery, "lung"; conditions: trachea (F2 α)

| Compound | contraction of chick rectum by prostaglandins (chick rectum) | contraction of rat smooth-muscle organs by prostaglandins [1] | contraction of guinea pig smooth-muscle organs by prostaglandins [2] |
| --- | --- | --- | --- |
| CCCCC[C@H](O)/C=C/[C@H]1[C@H](O)CC(=O)[C@@H]1CCCCCCC(=O)O [Prostaglandin E1] | contract | contract | contract |
| CCCCC[C@H](O)/C=C/[C@H]1[C@H](O)CC(=O)[C@@H]1C/C=C\CCCC(=O)O [Prostaglandin E2] | contract | contract | contract |
| Prostaglandin F2 α | contracting | contracting | contracts |
